What was measured:
HIF-1 = test: pTK-HRE3-luc reporter assay, 1,10-phenanthroline-induced HIF-1 activation in T47D cells; type: cell-based; details: Homo sapiens, read-out: inhibition of HIF-1 activation by 1,10-phenanthroline, 100 nM
Source text: Iron chelators and transition metals (such as cobalt and nickel) can activate HIF-1 and have been used as chemical hypoxia mimetics. […] The expression of the HIF-1α subunit quantitatively determines HIF-1 biological activity (activation of transcription).

HIF-1β protein = test: Western blot, HIF-1β protein in T47D nuclear extract; type: cell-based, human
Procedure: Due to the low abundance of HIF-1α protein in whole cell extract, nuclear extract is prepared and the level of HIF-1α protein in the nuclear extract determined by Western blot. Briefly, exponentially grown T47D cells are exposed to compound 2 for 30 minutes. […] Nuclear extracts are prepared from control and treated cells, separated on a SDS/PAGE gel, the separated proteins transferred to a nitrocellulose membrane, incubated with the primary antibodies (anti-HIF-1α, and anti-HIF-1β monoclonal antibodies, Novus Biologicals), secondary antibody biotinylated anti-mouse immunoglobulin G and Vectastain ABC reagent (Vector Laboratories), and developed using ECL reagents (Amersham Biosciences). […] No change in HIF-1β protein level is observed across the treatments. It is reasonable to conclude that the selectivity of compound 2 towards hypoxia-activated HIF-1 is caused by selective blockade of the hypoxic induction of HIF-1 protein.

EKVX = test: NCI in vitro cell line screen (SRB), Non-Small Cell Lung Cancer EKVX; type: cell-based
Procedure: (§1) For exemplary purposes, an embodiment of the present invention was tested for activity with respect to certain cancer cell lines. The following Tables show results from in vitro 60-cell line antitumor testing from the US National Cancer Institute Developmental Therapeutics Program (NCI-DTP) on compound 2. The testing was in connection with the NCI's In Vitro Cell Line Screening Project (IVCLSP). Detailed information regarding the experiments and their interpretation is available from the NCI.

NCI-H460 = test: NCI in vitro cell line screen (SRB), Non-Small Cell Lung Cancer NCI-H460; type: cell-based
Procedure: as §1

SF-539 = test: NCI in vitro cell line screen (SRB), CNS Cancer SF-539; type: cell-based
Procedure: as §1

[1] = Homo sapiens, read-out: LC50 (the source's name)

## COc1ccc([C@@H](O)[C@@H](C)Oc2ccc([C@H]3O[C@H](c4ccc(O[C@H](C)[C@H](O)c5ccc6c(c5)OCO6)c(OC)c4)[C@H](C)[C@H]3C)cc2OC)cc1OC [Compound 2, manassantin B]
HIF-1
  inhibition at 0.1 µM: 44%
HIF-1β protein
  HIF-1β protein level: No change
EKVX
  TGI: 8.25E−5 Molar
EKVX; Homo sapiens
  GI50: 2.51 µM
EKVX; [1]
  CC50: > 100 µM
EKVX; Log10 Concentration −4.0 Molar
  Mean Optical Densities: 0.970
  Percent Growth: −2%
EKVX; Log10 Concentration −5.0 Molar
  Mean Optical Densities: 1.180
  Percent Growth: 25%
EKVX; Log10 Concentration −6.0 Molar
  Mean Optical Densities: 1.479
  Percent Growth: 66%
EKVX; Log10 Concentration −7.0 Molar
  Mean Optical Densities: 1.478
  Percent Growth: 66%
EKVX; Log10 Concentration −8.0 Molar
  Mean Optical Densities: 1.447
  Percent Growth: 62%
NCI-H460
  TGI: >1.00E−4 Molar
NCI-H460; Homo sapiens
  GI50: 2.12 µM
  LC50 (concentration killing 50% of starting cells): > 100 µM
NCI-H460; Log10 Concentration −4.0 Molar
  Mean Optical Densities: 0.285
  Percent Growth: 11%
NCI-H460; Log10 Concentration −5.0 Molar
  Mean Optical Densities: 0.492
  Percent Growth: 28%
NCI-H460; Log10 Concentration −6.0 Molar
  Mean Optical Densities: 0.895
  Percent Growth: 61%
NCI-H460; Log10 Concentration −7.0 Molar
  Mean Optical Densities: 1.030
  Percent Growth: 72%
NCI-H460; Log10 Concentration −8.0 Molar
  Mean Optical Densities: 1.011
  Percent Growth: 70%
SF-539
  TGI: >1.00E−4 Molar
SF-539; Homo sapiens
  GI50: 6.28 µM
SF-539; [1]
  CC50: > 100 µM
SF-539; Log10 Concentration −4.0 Molar
  Mean Optical Densities: 0.535
  Percent Growth: 21%
SF-539; Log10 Concentration −5.0 Molar
  Mean Optical Densities: 0.629
  Percent Growth: 41%
SF-539; Log10 Concentration −6.0 Molar
  Mean Optical Densities: 0.848
  Percent Growth: 87%
SF-539; Log10 Concentration −7.0 Molar
  Mean Optical Densities: 0.914
  Percent Growth: 101%
SF-539; Log10 Concentration −8.0 Molar
  Mean Optical Densities: 0.880
  Percent Growth: 94%
